Results from ChEMBL document CHEMBL2413056, “Adipogenetic effects of retrofractamide A derivatives in 3T3-L1 cells” (Bioorg Med Chem Lett, 2013).
Activity calls are given as the source filed them. The calls are words filed in the database; no cut-off is given here.

How the values were obtained:
3T3-L1 [1] = experiment: Adipogenetic activity in mouse 3T3L1 cells assessed as increase in triglyceride level at 10 uM relative to control; type: functional
[2] = Cytotoxicity against mouse 3T3L1 cells assessed as cell viability at 30 uM by CCK8 assay relative to control; type: cell-based; details: 3T3-L1 cells, read-out: Activity
[3] = Cytotoxicity against mouse 3T3L1 cells assessed as cell viability at 10 uM by CCK8 assay relative to control; type: cell-based; details: 3T3-L1 cells, read-out: Activity
[4] = Cytotoxicity against mouse 3T3L1 cells assessed as cell viability at 3 uM by CCK8 assay relative to control; type: cell-based; details: 3T3-L1 cells, read-out: Activity
[5] = Cytotoxicity against mouse 3T3L1 cells assessed as cell viability at 1 uM by CCK8 assay relative to control; type: cell-based; details: 3T3-L1 cells, read-out: Activity
[6] = Cytotoxicity against mouse 3T3L1 cells assessed as cell viability at 0.3 uM by CCK8 assay relative to control; type: cell-based; details: 3T3-L1 cells, read-out: Activity
3T3-L1 [7] = experiment: Adipogenetic activity in mouse 3T3L1 cells assessed as increase in triglyceride level at 30 uM relative to control; type: functional
3T3-L1 [8] = experiment: Increase of C/EBPdelta mRNA expression in mouse 3T3L1 cells at 30 uM by RT-PCR analysis relative to beta-actin mRNA level; type: functional
3T3-L1 [9] = experiment: Increase of C/EBPbeta mRNA expression in mouse 3T3L1 cells at 30 uM by RT-PCR analysis relative to beta-actin mRNA level; type: functional
3T3-L1 [10] = experiment: Increase of C/EBPalpha mRNA expression in mouse 3T3L1 cells at 30 uM by RT-PCR analysis relative to beta-actin mRNA level; type: functional
3T3-L1 [11] = experiment: Increase of aP2 mRNA expression in mouse 3T3L1 cells at 30 uM by RT-PCR analysis relative to beta-actin mRNA level; type: functional
3T3-L1 [12] = experiment: Increase of GLUT4 mRNA expression in mouse 3T3L1 cells at 30 uM by RT-PCR analysis relative to beta-actin mRNA level; type: functional
3T3-L1 [13] = experiment: Increase of PPARgamma2 mRNA expression in mouse 3T3L1 cells at 30 uM by RT-PCR analysis relative to beta-actin mRNA level; type: functional
3T3-L1 [14] = experiment: Increase of adiponectin mRNA expression in mouse 3T3L1 cells at 30 uM by RT-PCR analysis relative to beta-actin mRNA level; type: functional
3T3-L1 [15] = experiment: Increase of C/EBPdelta mRNA expression in mouse 3T3L1 cells at 10 uM by RT-PCR analysis relative to beta-actin mRNA level; type: functional
3T3-L1 [16] = experiment: Increase of C/EBPbeta mRNA expression in mouse 3T3L1 cells at 10 uM by RT-PCR analysis relative to beta-actin mRNA level; type: functional
3T3-L1 [17] = experiment: Increase of C/EBPalpha mRNA expression in mouse 3T3L1 cells at 10 uM by RT-PCR analysis relative to beta-actin mRNA level; type: functional
3T3-L1 [18] = experiment: Increase of aP2 mRNA expression in mouse 3T3L1 cells at 10 uM by RT-PCR analysis relative to beta-actin mRNA level; type: functional
3T3-L1 [19] = experiment: Increase of GLUT4 mRNA expression in mouse 3T3L1 cells at 10 uM by RT-PCR analysis relative to beta-actin mRNA level; type: functional
3T3-L1 [20] = experiment: Increase of PPARgamma2 mRNA expression in mouse 3T3L1 cells at 10 uM by RT-PCR analysis relative to beta-actin mRNA level; type: functional
3T3-L1 [21] = experiment: Increase of adiponectin mRNA expression in mouse 3T3L1 cells at 10 uM by RT-PCR analysis relative to beta-actin mRNA level; type: functional
3T3-L1 [22] = experiment: Increase of C/EBPdelta mRNA expression in mouse 3T3L1 cells at 3 uM by RT-PCR analysis relative to beta-actin mRNA level; type: functional
3T3-L1 [23] = experiment: Increase of C/EBPbeta mRNA expression in mouse 3T3L1 cells at 3 uM by RT-PCR analysis relative to beta-actin mRNA level; type: functional
3T3-L1 [24] = experiment: Increase of C/EBPalpha mRNA expression in mouse 3T3L1 cells at 3 uM by RT-PCR analysis relative to beta-actin mRNA level; type: functional
3T3-L1 [25] = experiment: Increase of aP2 mRNA expression in mouse 3T3L1 cells at 3 uM by RT-PCR analysis relative to beta-actin mRNA level; type: functional
3T3-L1 [26] = experiment: Increase of GLUT4 mRNA expression in mouse 3T3L1 cells at 3 uM by RT-PCR analysis relative to beta-actin mRNA level; type: functional
3T3-L1 [27] = experiment: Increase of PPARgamma2 mRNA expression in mouse 3T3L1 cells at 3 uM by RT-PCR analysis relative to beta-actin mRNA level; type: functional
3T3-L1 [28] = experiment: Increase of adiponectin mRNA expression in mouse 3T3L1 cells at 3 uM by RT-PCR analysis relative to beta-actin mRNA level; type: functional
3T3-L1 [29] = experiment: Increase of 2-deoxyglucose uptake in mouse 3T3L1 cells using 2-deoxy-D-(2,6-3H)-glucose after 2 hrs by liquid scintillation counting; type: functional, cell-based
[30] = biological target: T1, Peroxisome proliferator-activated receptor gamma (Homo sapiens) (UniProt P37231); experiment: Agonist activity at PPARgamma (unknown origin) at 0.01 to 100 uM by nuclear receptor cofactor assay
T1 sequence (whole entry): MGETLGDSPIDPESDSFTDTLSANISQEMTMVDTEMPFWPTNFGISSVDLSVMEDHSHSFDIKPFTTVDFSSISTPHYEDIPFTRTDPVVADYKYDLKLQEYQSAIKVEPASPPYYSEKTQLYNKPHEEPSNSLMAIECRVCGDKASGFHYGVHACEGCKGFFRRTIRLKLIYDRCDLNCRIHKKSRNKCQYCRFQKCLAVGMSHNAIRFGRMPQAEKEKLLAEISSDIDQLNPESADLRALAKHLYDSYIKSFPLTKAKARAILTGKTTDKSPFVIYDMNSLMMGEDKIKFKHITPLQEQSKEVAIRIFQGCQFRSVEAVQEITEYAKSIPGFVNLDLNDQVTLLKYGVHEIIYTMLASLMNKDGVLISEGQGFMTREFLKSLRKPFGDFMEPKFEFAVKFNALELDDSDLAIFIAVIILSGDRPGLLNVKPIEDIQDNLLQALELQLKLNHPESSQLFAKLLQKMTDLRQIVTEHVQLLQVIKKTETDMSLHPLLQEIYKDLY

3T3-L1 [31] = experiment: Increase of 2-deoxyglucose uptake in mouse 3T3L1 cells using 2-deoxy-D-(2,6-3H)-glucose at 1 uM after 2 hrs by liquid scintillation counting; type: functional, cell-based

SMILES: OC/C=C/C=C/CC/C=C/c1ccc2c(c1)OCO2
- Activity (3T3-L1 [1]): 0.6%

SMILES: CC(C)CNC(=O)CCCCCCCCc1ccc2c(c1)OCO2
- viability at 30 µM [2]: 109%
- viability at 10 µM [3]: 111%
- viability at 3 µM [4]: 104%
- viability at 1 µM [5]: 105%
- viability at 0.3 µM [6]: 99.3%
- Activity (3T3-L1 [7]): 31.9%
- Activity (3T3-L1 [1]): 13.3%

SMILES: O=C(/C=C/C=C/CC/C=C/c1ccc2c(c1)OCO2)N1CCCCC1 [DEHYDROPIPERNOLINE]
- Activity (3T3-L1 [1]): 21.6%

SMILES: CC(C)NC(=O)/C=C/C=C/CC/C=C/c1ccc2c(c1)OCO2
- viability at 30 µM [2]: 102%
- viability at 10 µM [3]: 96.1%
- viability at 3 µM [4]: 96.6%
- viability at 1 µM [5]: 94.8%
- viability at 0.3 µM [6]: 95%
- Activity (3T3-L1 [7]): 43.1%
- Activity (3T3-L1 [1]): 39.4%

SMILES: CCCCNC(=O)/C=C/C=C/CC/C=C/c1ccc2c(c1)OCO2
- viability at 30 µM [2]: 78.7%
- viability at 10 µM [3]: 69.3%
- viability at 3 µM [4]: 87.1%
- viability at 1 µM [5]: 94.8%
- viability at 0.3 µM [6]: 96.2%
- Activity (3T3-L1 [7]): 46.2%
- Activity (3T3-L1 [1]): 55.9%

SMILES: CCCCCNC(=O)/C=C/C=C/CC/C=C/c1ccc2c(c1)OCO2
- Ratio (3T3-L1 [8]): 2.64
- Ratio (3T3-L1 [9]): 2.91
- Ratio (3T3-L1 [10]): 4.91
- Ratio (3T3-L1 [11]): 3.09
- Ratio (3T3-L1 [12]): 4.22
- Ratio (3T3-L1 [13]): 2.57
- Ratio (3T3-L1 [14]): 2.16
- Ratio (3T3-L1 [15]): 1.5
- Ratio (3T3-L1 [16]): 1.6
- Ratio (3T3-L1 [17]): 1.27
- Ratio (3T3-L1 [18]): 3.18
- Ratio (3T3-L1 [19]): 3.89
- Ratio (3T3-L1 [20]): 1.76
- Ratio (3T3-L1 [21]): 1.3
- Ratio (3T3-L1 [22]): 0.79
- Ratio (3T3-L1 [23]): 0.98
- Ratio (3T3-L1 [24]): 0.81
- Ratio (3T3-L1 [25]): 0.86
- Ratio (3T3-L1 [26]): 1.55
- Ratio (3T3-L1 [27]): 0.88
- Ratio (3T3-L1 [28]): 1.04
- Activity (3T3-L1 [29]): Dose-dependent effect
- viability at 30 µM [2]: 107%
- viability at 10 µM [3]: 99%
- viability at 3 µM [4]: 105%
- viability at 1 µM [5]: 102%
- viability at 0.3 µM [6]: 98.7%
- Activity (3T3-L1 [7]): 58.8%
- Activity (3T3-L1 [1]): 55.4%
- Activity [30]: Active

SMILES: CCCNC(=O)/C=C/C=C/CC/C=C/c1ccc2c(c1)OCO2
- viability at 30 µM [2]: 68.4%
- viability at 10 µM [3]: 87.5%
- viability at 3 µM [4]: 102%
- viability at 1 µM [5]: 104%
- viability at 0.3 µM [6]: 101%
- Activity (3T3-L1 [7]): 18.7%
- Activity (3T3-L1 [1]): 42.7%

SMILES: CC(C)CNC(=O)/C=C/C=C/CC/C=C/c1ccc2c(c1)OCO2 [RETROFRACTAMIDE A]
- viability at 30 µM [2]: 109%
- viability at 10 µM [3]: 108%
- viability at 3 µM [4]: 109%
- viability at 1 µM [5]: 98.1%
- viability at 0.3 µM [6]: 100%
- Activity (3T3-L1 [7]): 22.9%
- Activity (3T3-L1 [1]): 38%

SMILES: CC(C)COC(=O)/C=C/C=C/CC/C=C/c1ccc2c(c1)OCO2
- viability at 30 µM [2]: 21.7%
- Activity (3T3-L1 [7]): 21.7%
- Activity (3T3-L1 [1]): 20%

SMILES: Cc1c(C)c2c(c(C)c1O)CCC(C)(COc1ccc(CC3SC(=O)NC3=O)cc1)O2 (stereo not drawn)
- Activity (3T3-L1 [31]): Active

SMILES: COC(=O)/C=C/C=C/CC/C=C/c1ccc2c(c1)OCO2
- Activity (3T3-L1 [7]): 4%
- Activity (3T3-L1 [1]): 4.6%
